Tested on: L1210
Assay: In vitro cytotoxicity, Microculture Tetrazolium Assay, L1210
Type: cell-based
Details: L1210 murine leukaemia, incubated for 2 days; read-out: IC50 (concentration of cytotoxic agent which inhibits proliferation of the treated cells by 50%)
Experimental: Three cell lines were used:
The cells are cultured in RPMI 1640 complete culture medium containing 10% foetal calf serum, 2 mM glutamine, 50 units/ml of penicillin, 50 μg/ml of streptomycin and 10 mM Hepes, pH=7.4. The cells are distributed on microplates and are exposed to the cytotoxic compounds. The cells are then incubated for 2 days (L1210) or 4 days (A549, HT29). The number of viable cells is then quantified by a colorimetric assay, the Microculture Tetrazolium Assay (Cancer Res. 1987, 47, 939-942).

Q: `COc1cc(C2C3=C(COC3=O)Nc3c2ccc2ccc(O)cc32)cc(OC)c1OC` (stereo not shown) [Example 4] was tested. Which IC50 did it give?
A: The IC50 was 7 nM.
